Experiments:
Assay in all cases: KINOMEscan competition binding
Conditions in all cases: compound 10.0 µM
STK11 (human) = STK11 (human) (UniProt Q15831)
MYLK3 (human) = MYLK3 (human) (UniProt Q32MK0)
[1] = system: KIT (human), P10721 [V559D/V654A]
PIM2 (human) = PIM2 (human) (UniProt Q9P1W9)
RPS6KA4 KD2 (human) = RPS6KA4 KD2 (human) (UniProt O75676)
CIT (human) = CIT (human) (UniProt O14578)
MAP2K3 (human) = MAP2K3 (human) (UniProt P46734)
GAK (human) = GAK (human) (UniProt O14976)
KIT (human) = KIT (human) (UniProt P10721)
RIOK3 (human) = RIOK3 (human) (UniProt O14730)
STK24 (human) = STK24 (human) (UniProt Q9Y6E0)
SRPK2 (human) = SRPK2 (human) (UniProt P78362)
CLK4 (human) = CLK4 (human) (UniProt Q9HAZ1)
CDK7 (human) = CDK7 (human) (UniProt P50613)
MELK (human) = MELK (human) (UniProt Q14680)
MKNK1 (human) = MKNK1 (human) (UniProt Q9BUB5)
MAP4K2 (human) = MAP4K2 (human) (UniProt Q12851)
DCLK3 (human) = DCLK3 (human) (UniProt Q9C098)
TGFBR2 (human) = TGFBR2 (human) (UniProt P37173)
ACVR1 (human) = ACVR1 (human) (UniProt Q04771)
TNIK (human) = TNIK (human) (UniProt Q9UKE5)
ACVR2A (human) = ACVR2A (human) (UniProt P27037)
FLT3 (human) = FLT3 (human) (UniProt P36888)
PHKG2 (human) = PHKG2 (human) (UniProt P15735)
CSNK2A1 (human) = CSNK2A1 (human) (UniProt P68400)
AURKB (human) = AURKB (human) (UniProt Q96GD4)
TAOK3 (human) = TAOK3 (human) (UniProt Q9H2K8)
MAPK8 (human) = MAPK8 (human) (UniProt P45983)
[2] = system: KIT (human), P10721 [V559D]
[3] = system: EIF2AK4 KD2 (human), Q9P2K8 [S808G]
NEK2 (human) = NEK2 (human) (UniProt P51955)
TLK1 (human) = TLK1 (human) (UniProt Q9UKI8)
TTK (human) = TTK (human) (UniProt P33981)
MKNK2 (human) = MKNK2 (human) (UniProt Q9HBH9)
BMP2K (human) = BMP2K (human) (UniProt Q9NSY1)
RIOK2 (human) = RIOK2 (human) (UniProt Q9BVS4)
DAPK1 (human) = DAPK1 (human) (UniProt P53355)
CSNK2A2 (human) = CSNK2A2 (human) (UniProt P19784)
SRPK3 (human) = SRPK3 (human) (UniProt Q9UPE1)
PIM1 (human) = PIM1 (human) (UniProt P11309)
MAPK15 (human) = MAPK15 (human) (UniProt Q8TD08)
BMPR1B (human) = BMPR1B (human) (UniProt O00238)

Chain of KIT (human), P10721 [V559D/V654A] (P10721 whole entry V559D/V654A, looked up): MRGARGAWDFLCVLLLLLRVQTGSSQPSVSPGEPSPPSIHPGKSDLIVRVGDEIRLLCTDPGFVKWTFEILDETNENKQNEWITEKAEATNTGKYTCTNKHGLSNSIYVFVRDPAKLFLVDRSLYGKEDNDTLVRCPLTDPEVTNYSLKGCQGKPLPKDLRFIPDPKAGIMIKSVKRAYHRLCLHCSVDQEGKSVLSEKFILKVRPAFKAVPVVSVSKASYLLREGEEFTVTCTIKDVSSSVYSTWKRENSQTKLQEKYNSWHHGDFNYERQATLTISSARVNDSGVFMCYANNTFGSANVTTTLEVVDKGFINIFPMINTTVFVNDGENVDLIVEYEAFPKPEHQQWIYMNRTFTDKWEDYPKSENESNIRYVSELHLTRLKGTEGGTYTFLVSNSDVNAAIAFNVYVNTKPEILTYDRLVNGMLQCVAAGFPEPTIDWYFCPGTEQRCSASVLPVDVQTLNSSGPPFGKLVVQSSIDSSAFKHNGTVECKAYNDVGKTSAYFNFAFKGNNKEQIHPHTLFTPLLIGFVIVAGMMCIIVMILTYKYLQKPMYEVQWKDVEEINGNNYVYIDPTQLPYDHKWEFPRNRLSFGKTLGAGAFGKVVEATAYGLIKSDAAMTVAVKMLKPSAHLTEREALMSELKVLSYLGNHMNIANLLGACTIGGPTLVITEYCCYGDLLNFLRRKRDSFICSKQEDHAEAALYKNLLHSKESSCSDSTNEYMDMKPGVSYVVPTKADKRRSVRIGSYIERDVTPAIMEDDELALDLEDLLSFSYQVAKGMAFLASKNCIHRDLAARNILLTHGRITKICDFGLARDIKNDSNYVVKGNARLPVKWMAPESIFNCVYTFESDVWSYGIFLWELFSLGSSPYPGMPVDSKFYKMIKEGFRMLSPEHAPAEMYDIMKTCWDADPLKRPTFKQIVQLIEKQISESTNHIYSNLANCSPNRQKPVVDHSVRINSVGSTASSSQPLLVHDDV
Chain of PIM1 (human) (P11309 whole entry, looked up): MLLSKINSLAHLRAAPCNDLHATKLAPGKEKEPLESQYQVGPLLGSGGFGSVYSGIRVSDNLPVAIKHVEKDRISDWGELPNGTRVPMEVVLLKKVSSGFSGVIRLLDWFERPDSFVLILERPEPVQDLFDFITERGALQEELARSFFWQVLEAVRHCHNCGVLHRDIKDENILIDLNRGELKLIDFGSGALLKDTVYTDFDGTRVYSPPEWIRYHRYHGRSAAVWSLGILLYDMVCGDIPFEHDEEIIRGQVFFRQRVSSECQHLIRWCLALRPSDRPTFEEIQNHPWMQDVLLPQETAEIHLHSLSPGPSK
Chain of SRPK3 (human) (Q9UPE1 whole entry, looked up): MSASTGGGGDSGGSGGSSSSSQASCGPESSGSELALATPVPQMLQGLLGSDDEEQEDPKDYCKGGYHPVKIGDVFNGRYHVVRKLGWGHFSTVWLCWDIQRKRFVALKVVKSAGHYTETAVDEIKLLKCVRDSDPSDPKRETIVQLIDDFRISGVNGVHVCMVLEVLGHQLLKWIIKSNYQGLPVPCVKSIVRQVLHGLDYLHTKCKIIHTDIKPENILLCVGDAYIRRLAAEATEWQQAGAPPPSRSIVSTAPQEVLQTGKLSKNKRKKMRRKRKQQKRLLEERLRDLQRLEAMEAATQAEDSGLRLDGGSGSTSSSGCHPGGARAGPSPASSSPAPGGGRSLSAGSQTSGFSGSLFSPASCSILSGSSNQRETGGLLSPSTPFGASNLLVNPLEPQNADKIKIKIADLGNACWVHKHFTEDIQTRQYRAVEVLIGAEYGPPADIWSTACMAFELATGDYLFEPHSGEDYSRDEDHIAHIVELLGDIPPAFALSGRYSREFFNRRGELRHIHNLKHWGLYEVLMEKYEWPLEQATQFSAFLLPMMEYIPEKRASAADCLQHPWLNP
Chain of DAPK1 (human) (P53355 whole entry, looked up): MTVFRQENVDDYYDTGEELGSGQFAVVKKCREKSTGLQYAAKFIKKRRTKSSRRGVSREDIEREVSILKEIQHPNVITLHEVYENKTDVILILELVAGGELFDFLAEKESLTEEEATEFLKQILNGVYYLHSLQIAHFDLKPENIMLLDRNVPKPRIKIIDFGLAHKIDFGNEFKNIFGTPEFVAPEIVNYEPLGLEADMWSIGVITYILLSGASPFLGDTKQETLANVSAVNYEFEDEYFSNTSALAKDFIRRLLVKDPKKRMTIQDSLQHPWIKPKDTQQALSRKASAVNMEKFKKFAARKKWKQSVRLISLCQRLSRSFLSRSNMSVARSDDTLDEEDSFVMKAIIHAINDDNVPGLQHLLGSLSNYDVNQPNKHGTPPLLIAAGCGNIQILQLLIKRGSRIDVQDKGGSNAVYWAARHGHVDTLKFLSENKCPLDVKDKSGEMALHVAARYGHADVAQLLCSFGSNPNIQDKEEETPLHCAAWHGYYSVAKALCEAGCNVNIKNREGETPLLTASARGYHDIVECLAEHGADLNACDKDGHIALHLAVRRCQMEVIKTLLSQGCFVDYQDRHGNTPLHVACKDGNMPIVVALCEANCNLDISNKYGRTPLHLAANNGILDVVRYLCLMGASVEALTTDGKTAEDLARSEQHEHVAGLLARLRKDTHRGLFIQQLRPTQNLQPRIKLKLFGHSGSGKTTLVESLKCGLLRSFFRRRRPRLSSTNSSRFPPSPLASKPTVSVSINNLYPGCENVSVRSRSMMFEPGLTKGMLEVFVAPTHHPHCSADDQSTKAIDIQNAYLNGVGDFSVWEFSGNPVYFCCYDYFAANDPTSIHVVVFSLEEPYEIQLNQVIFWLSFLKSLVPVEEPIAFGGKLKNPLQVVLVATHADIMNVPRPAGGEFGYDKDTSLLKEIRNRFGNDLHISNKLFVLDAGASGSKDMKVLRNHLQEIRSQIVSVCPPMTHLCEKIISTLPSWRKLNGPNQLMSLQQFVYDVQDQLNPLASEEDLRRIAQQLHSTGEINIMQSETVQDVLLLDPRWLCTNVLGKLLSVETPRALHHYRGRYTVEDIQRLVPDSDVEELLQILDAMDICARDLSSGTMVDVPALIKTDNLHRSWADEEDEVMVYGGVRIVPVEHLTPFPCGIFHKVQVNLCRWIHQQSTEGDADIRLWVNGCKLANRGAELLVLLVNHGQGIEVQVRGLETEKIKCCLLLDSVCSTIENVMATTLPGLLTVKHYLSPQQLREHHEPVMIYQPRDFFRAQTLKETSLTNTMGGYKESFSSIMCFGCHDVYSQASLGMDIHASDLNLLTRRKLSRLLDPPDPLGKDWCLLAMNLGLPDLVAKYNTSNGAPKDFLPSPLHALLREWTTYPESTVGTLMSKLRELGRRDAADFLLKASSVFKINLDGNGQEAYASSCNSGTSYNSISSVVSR
Chain of MAPK15 (human) (Q8TD08 whole entry, looked up): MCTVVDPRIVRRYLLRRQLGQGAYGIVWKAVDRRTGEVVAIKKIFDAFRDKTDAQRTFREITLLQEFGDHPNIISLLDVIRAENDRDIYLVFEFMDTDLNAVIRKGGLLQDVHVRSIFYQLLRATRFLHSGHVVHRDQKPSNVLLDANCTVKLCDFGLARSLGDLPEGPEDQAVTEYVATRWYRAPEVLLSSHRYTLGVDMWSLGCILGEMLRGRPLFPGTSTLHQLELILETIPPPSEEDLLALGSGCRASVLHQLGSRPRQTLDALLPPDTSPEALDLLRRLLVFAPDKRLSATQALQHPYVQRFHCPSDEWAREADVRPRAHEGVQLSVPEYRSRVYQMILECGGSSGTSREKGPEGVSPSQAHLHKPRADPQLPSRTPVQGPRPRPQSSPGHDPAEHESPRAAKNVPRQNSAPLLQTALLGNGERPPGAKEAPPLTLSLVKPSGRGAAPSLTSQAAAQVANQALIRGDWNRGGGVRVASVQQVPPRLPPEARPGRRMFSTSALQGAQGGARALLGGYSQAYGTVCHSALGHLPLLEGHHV
Chain of FLT3 (human) (P36888 whole entry, looked up): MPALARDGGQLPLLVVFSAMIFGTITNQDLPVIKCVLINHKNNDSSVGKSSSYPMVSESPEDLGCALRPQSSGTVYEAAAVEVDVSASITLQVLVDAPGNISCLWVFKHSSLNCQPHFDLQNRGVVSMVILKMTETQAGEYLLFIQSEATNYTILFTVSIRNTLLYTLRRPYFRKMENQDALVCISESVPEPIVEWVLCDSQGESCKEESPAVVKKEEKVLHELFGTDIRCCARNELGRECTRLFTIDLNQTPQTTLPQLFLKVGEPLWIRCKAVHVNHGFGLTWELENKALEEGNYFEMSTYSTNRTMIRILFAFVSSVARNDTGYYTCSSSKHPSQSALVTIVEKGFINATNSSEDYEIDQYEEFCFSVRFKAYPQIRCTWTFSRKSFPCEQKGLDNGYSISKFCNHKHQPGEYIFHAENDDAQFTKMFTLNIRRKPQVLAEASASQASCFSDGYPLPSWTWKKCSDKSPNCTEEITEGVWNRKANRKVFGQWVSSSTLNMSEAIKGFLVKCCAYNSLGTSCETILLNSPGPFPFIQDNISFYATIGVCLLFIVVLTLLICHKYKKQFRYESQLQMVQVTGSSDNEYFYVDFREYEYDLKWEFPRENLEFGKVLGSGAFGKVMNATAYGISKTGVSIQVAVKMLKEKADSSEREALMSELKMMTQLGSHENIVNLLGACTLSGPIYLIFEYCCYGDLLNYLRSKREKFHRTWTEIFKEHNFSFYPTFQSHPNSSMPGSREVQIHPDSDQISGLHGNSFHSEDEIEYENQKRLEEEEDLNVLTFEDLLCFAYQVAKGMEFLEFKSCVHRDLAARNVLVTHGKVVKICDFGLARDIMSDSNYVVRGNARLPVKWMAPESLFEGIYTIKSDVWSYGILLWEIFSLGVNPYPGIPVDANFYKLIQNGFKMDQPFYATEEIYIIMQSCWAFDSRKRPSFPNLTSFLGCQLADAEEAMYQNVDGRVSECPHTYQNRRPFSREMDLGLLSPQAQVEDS
Chain of KIT (human) (P10721 whole entry, looked up): as the sequence (P10721 whole entry V559D/V654A, looked up) above, with D559V, A654V counted along it
Chain of KIT (human), P10721 [V559D] (P10721 whole entry V559D, looked up): as the sequence (P10721 whole entry V559D/V654A, looked up) above, with A654V counted along it

COc1cc(N2CCN(C)CC2)ccc1Nc1ncc2c(n1)Nc1ccccc1NC2=O
kinase still bound, per cent of control (STK11 (human)): 100% | kinase still bound, per cent of control (MYLK3 (human)): 100% | kinase still bound, per cent of control [1]: 88% | kinase still bound, per cent of control (PIM2 (human)): 100% | kinase still bound, per cent of control (RPS6KA4 KD2 (human)): 31% | kinase still bound, per cent of control (CIT (human)): 47% | kinase still bound, per cent of control (MAP2K3 (human)): 88% | kinase still bound, per cent of control (GAK (human)): 5.8% | kinase still bound, per cent of control (KIT (human)): 48% | kinase still bound, per cent of control (RIOK3 (human)): 68% | kinase still bound, per cent of control (STK24 (human)): 95% | kinase still bound, per cent of control (SRPK2 (human)): 93% | kinase still bound, per cent of control (CLK4 (human)): 94% | kinase still bound, per cent of control (CDK7 (human)): 100% | kinase still bound, per cent of control (MELK (human)): 64% | kinase still bound, per cent of control (MKNK1 (human)): 100% | kinase still bound, per cent of control (MAP4K2 (human)): 6.3% | kinase still bound, per cent of control (DCLK3 (human)): 98% | kinase still bound, per cent of control (TGFBR2 (human)): 32% | kinase still bound, per cent of control (ACVR1 (human)): 37% | kinase still bound, per cent of control (TNIK (human)): 82% | kinase still bound, per cent of control (ACVR2A (human)): 34% | kinase still bound, per cent of control (FLT3 (human)): 69% | kinase still bound, per cent of control (PHKG2 (human)): 6.8% | kinase still bound, per cent of control (CSNK2A1 (human)): 76% | kinase still bound, per cent of control (AURKB (human)): 59% | kinase still bound, per cent of control (TAOK3 (human)): 2.1% | kinase still bound, per cent of control (MAPK8 (human)): 73% | kinase still bound, per cent of control [2]: 55% | kinase still bound, per cent of control [3]: 12% | kinase still bound, per cent of control (NEK2 (human)): 84% | kinase still bound, per cent of control (TLK1 (human)): 70% | kinase still bound, per cent of control (TTK (human)): 86% | kinase still bound, per cent of control (MKNK2 (human)): 69% | kinase still bound, per cent of control (BMP2K (human)): 72% | kinase still bound, per cent of control (RIOK2 (human)): 43% | kinase still bound, per cent of control (DAPK1 (human)): 64% | kinase still bound, per cent of control (CSNK2A2 (human)): 100% | kinase still bound, per cent of control (SRPK3 (human)): 76% | kinase still bound, per cent of control (PIM1 (human)): 46% | kinase still bound, per cent of control (MAPK15 (human)): 69% | kinase still bound, per cent of control (BMPR1B (human)): 19%

— the kinase profiling compilation of Christmann-Franck et al. (2016)
